In ChEMBL document CHEMBL5518177, “Discovery of GPX4 inhibitors through FP-based high-throughput screening” (Eur J Med Chem, 2024):
Each block holds one molecule with its values, some of them ahead of it. Activity calls are given as the source filed them. No cut-off for these calls is given here.

Assays:
[1] = Binding affinity to N-terminal 6His-TEV-tagged recombinant human GPX4-U46C-C10A-C66A mutant (Met1 to Phe170 residues) expressed in Escherichia coli BL21 (DE3) cells incubated for 20 mins in presence of FITC-labeled peptide by fluorescence polarization based competitive binding assay; type: cell-based
Homo sapiens [2] = species on record: Homo sapiens; experiment: Inhibition of N-terminal 6His-TEV-tagged recombinant human GPX4-U46C-C10A-C66A mutant (Met1 to Phe170 residues) expressed in Escherichia coli BL21 (DE3) cells at 1 to 100 uM incubated for 20 mins by fluorescence polarization based high-throughput screening assay; settings: dose 1-100 µM
[3] = Inhibition of N-terminal 6His-TEV-tagged recombinant human GPX4-U46C-C10A-C66A mutant (Met1 to Phe170 residues) expressed in Escherichia coli BL21 (DE3) cells incubated for 20 mins by fluorescence polarization based high-throughput screening assay
Homo sapiens [4] = species on record: Homo sapiens; experiment: (§1) Inhibition of N-terminal 6His-TEV-tagged recombinant human GPX4-U46C-C10A-C66A mutant (Met1 to Phe170 residues) expressed in Escherichia coli BL21 (DE3) cells using tert-butyl peroxide as substrate assessed as Vmax at 40 uM preincubated for 10 mins in presence of NADPH and GSH followed by substrate addition and measured after 30 mins by absorbance based plate reader analysis (reference value: 0.556 +/- 0.058 nM/min); settings: time 40.0 min
Homo sapiens [5] = species on record: Homo sapiens; experiment: as §1, with “Km” for “Vmax”, “20” for “40”, “36.04” for “0.556”, “7.80 microM)” for “0.058 nM/min)”; settings: time 40.0 min
Homo sapiens [6] = species on record: Homo sapiens; experiment: Non-covalent binding to N-terminal 6His-TEV-tagged recombinant human GPX4-U46C-C10A-C66A mutant (Met1 to Phe170 residues) expressed in Escherichia coli BL21 (DE3) cells by mass spectrum analysis
[7] = as §1, with “hydroperoxide” for “peroxide”, “substrate” for “substrate assessed as Vmax at 40 uM”, “analysis” for “analysis (reference value: 0.556 +/- 0.058 nM/min)”
Homo sapiens [8] = species on record: Homo sapiens; experiment: as §1, with “20” for “40”; settings: time 40.0 min
Homo sapiens [9] = species on record: Homo sapiens; experiment: Inhibition of N-terminal 6His-TEV-tagged recombinant human GPX4-U46C-C10A-C66A mutant (Met1 to Phe170 residues) expressed in Escherichia coli BL21 (DE3) cells using tert-butyl peroxide as substrate assessed as Vmax at 10 uM preincubated for 10 mins in presence of NADPH and GSH followed by substrate …; settings: time 40.0 min
Homo sapiens [10] = species on record: Homo sapiens; experiment: as §1, with “Km” for “Vmax”, “36.04” for “0.556”, “7.80 microM)” for “0.058 nM/min)”; settings: time 40.0 min
Homo sapiens [11] = species on record: Homo sapiens; experiment: Reversible inhibition of N-terminal 6His-TEV-tagged recombinant human GPX4-U46C-C10A-C66A mutant (Met1 to Phe170 residues) expressed in Escherichia coli BL21 (DE3) cells by mass spectrum analysis
Homo sapiens [12] = species on record: Homo sapiens; experiment: as §1, with “50” for “40”; settings: time 40.0 min
[13] = Binding affinity to N-terminal 6His-TEV-tagged recombinant human GPX4-U46C-C10A-C66A mutant (Met1 to Phe170 residues) expressed in Escherichia coli BL21 (DE3) cells assessed as dissociation constant incubated for 10 mins by microscale thermophoresis assay
Homo sapiens [14] = species on record: Homo sapiens; experiment: as §1, with “30” for “40”; settings: time 40.0 min
Homo sapiens [15] = species on record: Homo sapiens; experiment: as §1, with “Km” for “Vmax”, “30” for “40”, “36.04” for “0.556”, “7.80 microM)” for “0.058 nM/min)”; settings: time 40.0 min
Homo sapiens [16] = species on record: Homo sapiens; experiment: Inhibition of N-terminal 6His-TEV-tagged recombinant human GPX4-U46C-C10A-C66A mutant (Met1 to Phe170 residues) expressed in Escherichia coli BL21 (DE3) cells using tert-butyl peroxide as substrate assessed as Km at 10 uM preincubated for 10 mins in presence of NADPH and GSH followed by substrate …; settings: time 40.0 min
Homo sapiens [17] = species on record: Homo sapiens; experiment: as §1, with “Km” for “Vmax”, “50” for “40”, “36.04” for “0.556”, “7.80 microM)” for “0.058 nM/min)”; settings: time 40.0 min

IC50 [1]: 5.74 µM
Compound: Cc1c(NCS(=O)(=O)O)c(=O)n(-c2ccccc2-c2ccoc2)n1C

IC50 [1]: > 100 µM
Compound: Cc1c(NCS(=O)(=O)O)c(=O)n(-c2ccccc2)n1C(C)C

IC50 [3]: 4.58 µM
Compound: C=CC1=C(C)C(=O)N/C1=C\c1[nH]c(Cc2[nH]c(/C=C3\NC(=O)C(C)=C3C=C)c(C)c2CCC(=O)O)c(CCC(=O)O)c1C
inhibition (Homo sapiens [2]): Active

IC50 [1]: 2.53 µM
Compound: Cc1c(NCS(=O)(=O)O)c(=O)n(C2CCCCC2)n1C

IC50 [1]: 4.21 µM
Compound: Cc1c(NCS(=O)(=O)O)c(=O)n(-c2ccccc2-c2ccccc2)n1C

IC50 [1]: 3.54 µM
Compound: Cc1c(NCS(=O)(=O)O)c(=O)n(-c2ccccn2)n1C

IC50 [1]: 12.1 µM
Compound: Cc1c(NCS(=O)(=O)O)c(=O)n(-c2ccccc2Br)n1C

IC50 [1]: > 100 µM
Compound: CCc1c(NCS(=O)(=O)O)c(=O)n(-c2ccccc2)n1C

IC50 [1]: 22.7 µM
Compound: Cn1c(CO)c(NCS(=O)(=O)O)c(=O)n1-c1ccccc1

IC50 [1]: 9.63 µM
Compound: Cc1c(NCS(=O)(=O)O)c(=O)n(-c2cccc(-c3ccc(Br)cc3)c2)n1C

IC50 [3]: 6.54 µM
Compound: O=C(O)[C@H](O)Cc1ccc(O)c(O)c1
inhibition (Homo sapiens [2]): Active

IC50 [1]: 6.02 µM
Compound: CCCn1c(C)c(NCS(=O)(=O)O)c(=O)n1-c1ccccc1

IC50 [7]: 31.1 µM | IC50 [1]: 4.75 µM | IC50 [3]: 1.4 µM
Compound: Cc1c(N(C)CS(=O)(=O)O)c(=O)n(-c2ccccc2)n1C [DIPYRONE SODIUM]
Vmax (Homo sapiens [4]): 0.306 nM/min | Km (Homo sapiens [5]): 17.2 µM | inhibition (Homo sapiens [2]): Active | Activity (Homo sapiens [6]): Active | Vmax (Homo sapiens [8]): 0.361 nM/min | Vmax (Homo sapiens [9]): 0.439 nM/min | Km (Homo sapiens [10]): 12.1 µM | inhibition (Homo sapiens [11]): Dose-Dependent Effect | Vmax (Homo sapiens [12]): 0.289 nM/min | Kd [13]: 5.23 µM | Vmax (Homo sapiens [14]): 0.345 nM/min | Km (Homo sapiens [15]): 15.7 µM | Km (Homo sapiens [16]): 23.4 µM | Km (Homo sapiens [17]): 11.9 µM

IC50 [1]: 2.37 µM
Compound: Cc1c(NCS(=O)(=O)O)c(=O)n(-c2ccccc2)n1C

IC50 [1]: > 100 µM
Compound: CNC(=O)CN(C)c1c(C)n(C)n(-c2ccccc2)c1=O

IC50 [1]: 5.89 µM
Compound: Cc1c(NCS(=O)(=O)O)c(=O)n(-c2cccc(-c3ccoc3)c2)n1C

IC50 [1]: > 100 µM
Compound: Cc1c(NCS(=O)(=O)O)c(=O)n(-c2ccc(-c3ccccc3)cc2)n1C

IC50 [1]: > 100 µM
Compound: Cc1c(NCC(=O)O)c(=O)n(-c2ccccc2)n1C

IC50 [3]: 7.52 µM
Compound: N[C@@H](CO)C(=O)NNCc1ccc(O)c(O)c1O
inhibition (Homo sapiens [2]): Active

IC50 [1]: > 100 µM
Compound: CCCc1c(NCS(=O)(=O)O)c(=O)n(-c2ccccc2)n1C

IC50 [3]: 13.8 µM
Compound: Cc1c(S(=O)(=O)O)oc2c1C(=O)C(=O)c1c-2ccc2c1CCCC2(C)C [SODIUM TANSHINONE IIA SULFONATE]
inhibition (Homo sapiens [2]): Active

IC50 [1]: > 100 µM
Compound: Cc1c(NCS(=O)(=O)O)c(=O)n(-c2cccc(-c3ccccc3)c2)n1C

IC50 [1]: 4.6 µM
Compound: CC(C)c1c(NCS(=O)(=O)O)c(=O)n(-c2ccccc2)n1C

IC50 [3]: 5.18 µM
Compound: O=c1oc2cc(O)ccc2s1 [TIOXOLONE]
inhibition (Homo sapiens [2]): Active

IC50 [1]: 10.3 µM
Compound: Cc1c(NCS(=O)(=O)O)c(=O)n(-c2cccc(Br)c2)n1C

IC50 [1]: 4.65 µM
Compound: Cn1c(C2CC2)c(NCS(=O)(=O)O)c(=O)n1-c1ccccc1

IC50 [1]: 8.51 µM
Compound: Cc1c(NCS(=O)(=O)O)c(=O)n(-c2ccc(-c3ccoc3)cc2)n1C
